Laboratory results from paper PMC4658394 (ChemMedChem, 2015).

Experiments:
[1] = biological target: HDAC-1 (Homo sapiens, UniProt Q13547); assay: HDAC-1 fluorogenic assay with competing metalloprotein MT; type: biochemical; details: 53 nM SAHA, HDAC-1 0.25 μM, various concentrations of MT
[2] = biological target: T1, HDAC-6 (Homo sapiens, UniProt Q9UBN7); assay: HDAC-6 fluorogenic assay with competing metalloprotein MT; type: biochemical; details: 22 nM SAHA, HDAC-6 0.16 μM, various concentrations of MT
T1 sequence (Q9UBN7 1-1215): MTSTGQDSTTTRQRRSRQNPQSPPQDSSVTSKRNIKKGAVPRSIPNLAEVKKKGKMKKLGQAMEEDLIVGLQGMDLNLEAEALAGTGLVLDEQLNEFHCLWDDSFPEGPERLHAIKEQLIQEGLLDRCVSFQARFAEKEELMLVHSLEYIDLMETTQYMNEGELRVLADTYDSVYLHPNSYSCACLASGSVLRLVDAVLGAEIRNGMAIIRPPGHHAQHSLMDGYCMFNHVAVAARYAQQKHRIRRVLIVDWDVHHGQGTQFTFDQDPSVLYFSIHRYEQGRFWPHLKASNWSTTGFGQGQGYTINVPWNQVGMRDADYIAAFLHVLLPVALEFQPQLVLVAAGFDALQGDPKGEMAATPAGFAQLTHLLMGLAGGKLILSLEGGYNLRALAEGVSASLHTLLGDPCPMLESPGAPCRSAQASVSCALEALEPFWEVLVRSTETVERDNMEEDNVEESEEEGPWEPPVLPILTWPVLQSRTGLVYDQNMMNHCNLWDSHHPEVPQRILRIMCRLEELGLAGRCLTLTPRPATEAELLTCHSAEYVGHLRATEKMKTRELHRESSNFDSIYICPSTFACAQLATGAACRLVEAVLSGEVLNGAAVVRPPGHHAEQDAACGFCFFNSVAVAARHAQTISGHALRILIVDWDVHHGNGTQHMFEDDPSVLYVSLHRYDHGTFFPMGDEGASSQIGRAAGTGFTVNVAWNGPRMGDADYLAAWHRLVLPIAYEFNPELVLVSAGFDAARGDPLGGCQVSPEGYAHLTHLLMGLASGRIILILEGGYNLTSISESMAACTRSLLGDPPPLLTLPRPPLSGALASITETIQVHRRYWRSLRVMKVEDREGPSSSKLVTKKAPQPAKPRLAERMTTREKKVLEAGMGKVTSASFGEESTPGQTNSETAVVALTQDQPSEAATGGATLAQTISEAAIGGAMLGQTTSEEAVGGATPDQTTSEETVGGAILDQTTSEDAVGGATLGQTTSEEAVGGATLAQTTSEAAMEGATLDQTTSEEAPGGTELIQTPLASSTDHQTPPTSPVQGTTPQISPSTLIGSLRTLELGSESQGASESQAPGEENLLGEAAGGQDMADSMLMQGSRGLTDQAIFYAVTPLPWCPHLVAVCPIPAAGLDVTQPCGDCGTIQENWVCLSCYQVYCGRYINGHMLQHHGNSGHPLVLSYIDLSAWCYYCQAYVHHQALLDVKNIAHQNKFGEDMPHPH

[3] = biological target: T2, MMP-2 (Homo sapiens, UniProt P08253); assay: MMP-2 fluorogenic substrate assay with competing metalloproteins; type: biochemical; details: MMP-2 2.7 nM
T2 sequence (P08253 110-660): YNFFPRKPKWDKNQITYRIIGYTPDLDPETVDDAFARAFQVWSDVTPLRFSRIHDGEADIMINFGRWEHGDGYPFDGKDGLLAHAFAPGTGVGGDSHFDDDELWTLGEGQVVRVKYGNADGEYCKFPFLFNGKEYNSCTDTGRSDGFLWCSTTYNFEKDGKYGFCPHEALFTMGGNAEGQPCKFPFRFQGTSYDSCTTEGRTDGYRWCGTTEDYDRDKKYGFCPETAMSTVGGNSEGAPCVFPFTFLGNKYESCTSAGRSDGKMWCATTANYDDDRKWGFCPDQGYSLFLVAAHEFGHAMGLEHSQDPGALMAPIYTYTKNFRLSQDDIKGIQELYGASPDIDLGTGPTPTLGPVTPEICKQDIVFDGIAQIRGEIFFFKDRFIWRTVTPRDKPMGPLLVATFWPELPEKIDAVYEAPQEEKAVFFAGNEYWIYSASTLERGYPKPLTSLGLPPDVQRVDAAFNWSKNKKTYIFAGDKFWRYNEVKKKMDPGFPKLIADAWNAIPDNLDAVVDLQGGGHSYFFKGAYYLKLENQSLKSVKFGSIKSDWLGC

[4] = biological target: MMP-12 (Homo sapiens, UniProt P39900); assay: MMP-12 fluorogenic substrate assay with competing metalloprotein MT; details: MMP-12 0.68 nM
Sequence of MMP-12 (P39900 106-470): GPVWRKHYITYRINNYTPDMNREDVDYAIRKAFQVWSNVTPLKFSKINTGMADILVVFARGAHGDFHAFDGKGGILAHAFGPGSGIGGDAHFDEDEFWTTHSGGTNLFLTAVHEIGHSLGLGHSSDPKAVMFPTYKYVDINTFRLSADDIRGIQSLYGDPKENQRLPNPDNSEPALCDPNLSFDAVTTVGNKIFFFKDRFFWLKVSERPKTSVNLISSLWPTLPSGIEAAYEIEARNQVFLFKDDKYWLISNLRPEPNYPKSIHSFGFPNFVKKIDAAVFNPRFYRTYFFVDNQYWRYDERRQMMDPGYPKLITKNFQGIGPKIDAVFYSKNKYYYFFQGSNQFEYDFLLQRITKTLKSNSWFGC

Sequence of HDAC-1 (Q13547 whole entry): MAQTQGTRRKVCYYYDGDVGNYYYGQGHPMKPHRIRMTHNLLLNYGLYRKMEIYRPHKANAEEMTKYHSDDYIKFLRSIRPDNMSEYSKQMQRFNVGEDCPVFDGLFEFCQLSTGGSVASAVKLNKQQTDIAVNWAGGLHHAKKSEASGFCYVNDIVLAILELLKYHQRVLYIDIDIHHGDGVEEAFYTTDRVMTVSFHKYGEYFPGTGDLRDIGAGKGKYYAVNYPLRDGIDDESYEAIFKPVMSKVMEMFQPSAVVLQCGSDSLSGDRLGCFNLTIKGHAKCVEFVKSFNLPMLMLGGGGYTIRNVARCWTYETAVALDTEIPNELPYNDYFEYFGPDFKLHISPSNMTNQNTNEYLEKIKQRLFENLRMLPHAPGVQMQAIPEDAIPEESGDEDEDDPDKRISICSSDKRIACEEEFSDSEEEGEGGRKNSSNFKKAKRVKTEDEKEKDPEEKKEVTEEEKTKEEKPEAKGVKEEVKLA

Structure (SMILES): O=C(CCCCCCC(=O)Nc1ccccc1)NO [SAHA, suberolylanilide hydroxamic acid]
- change in SAHA activity against HDAC-1 with increasing MT [1]: no substantial decrease
- change in SAHA activity against HDAC-6 with increasing MT [2]: no substantial decrease

Structure (SMILES): COc1ccc(S(=O)(=O)N(Cc2cccnc2)[C@@H](C(=O)NO)C(C)C)cc1 [CGS]
- MMP-2 inhibition in the presence of combinations of competing proteins ([3]; CGS 3 nM, MT, Mb, Tf, hCAII combinations 400 nM each): no drop in inhibition
- specificity for MMP-2 in the presence of excess MT ([3]; CGS 3 nM or NSA 30 nM, MT up to 50 equiv over MPi): maintain their specificity
- effect of Mb, Tf or hCAII as competing protein on MMP-2 inhibition ([3]; NSA 30 nM or CGS 3 nM, up to 166 equiv over CGS, up to 50 equiv over NSA): not titrating the MPi away from the MMP-2 target

Structure (SMILES): O=C(NCc1ccc(-c2ccccc2)cc1)c1cccc(=O)n1O [1,2-HOPO-2]
- effect of large excess of MT on activity against MMP-12 ([4]; 30 nM inhibitor, up to 9 μM MT (300 equiv over inhibitor)): did not perturb the activity
- IC50 ([4]; read-out: IC50 against MMP-12): 30 nM
